Experimental data from the NIST ThermoML archive (doi:10.1016/j.fluid.2015.12.055).
Numbers after ± are expanded uncertainties.

Details: Liquid, Vibrating tube method

## CCn1cc[n+](C)c1.O=S(=O)([O-])C(F)(F)C(F)(F)C(F)(F)C(F)(F)F
298.15 K, 101.33 kPa
  mass density: 1546.54 ± 4.7 kg/m3
303.15 K, 101.33 kPa
  mass density: 1541.24 ± 4.6 kg/m3
313.15 K, 101.33 kPa
  mass density: 1530.71 ± 4.6 kg/m3
313.15 K, 510 kPa
  mass density: 1530.15 ± 4.6 kg/m3
313.15 K, 1007 kPa
  mass density: 1530.64 ± 4.6 kg/m3
313.15 K, 2007 kPa
  mass density: 1531.73 ± 4.6 kg/m3
313.15 K, 3005 kPa
  mass density: 1532.82 ± 4.7 kg/m3
313.15 K, 4004 kPa
  mass density: 1533.91 ± 4.7 kg/m3
313.15 K, 5000 kPa
  mass density: 1534.99 ± 4.7 kg/m3
313.15 K, 5999 kPa
  mass density: 1536.06 ± 4.7 kg/m3
323.15 K, 101.33 kPa
  mass density: 1520.31 ± 4.5 kg/m3
333.15 K, 101.33 kPa
  mass density: 1510.01 ± 4.5 kg/m3
343.15 K, 101.33 kPa
  mass density: 1499.78 ± 4.4 kg/m3
353.15 K, 101.33 kPa
  mass density: 1489.64 ± 4.3 kg/m3
363.15 K, 101.33 kPa
  mass density: 1479.58 ± 4.3 kg/m3

## CCn1cc[n+](C)c1.F[B-](F)(F)F [1-ethyl-3-methylimidazolium tetrafluoroborate]
293.15 K, 101.33 kPa
  mass density: 1283.53 ± 1.5 kg/m3
298.15 K, 101.33 kPa
  mass density: 1279.7 ± 1.5 kg/m3
303.15 K, 101.33 kPa
  mass density: 1275.89 ± 1.5 kg/m3
313.15 K, 101.33 kPa
  mass density: 1268.33 ± 1.4 kg/m3
313.15 K, 503 kPa
  mass density: 1268.82 ± 1.4 kg/m3
313.15 K, 999 kPa
  mass density: 1269.09 ± 1.4 kg/m3
313.15 K, 2001 kPa
  mass density: 1269.74 ± 1.5 kg/m3
313.15 K, 2998 kPa
  mass density: 1270.26 ± 1.5 kg/m3
313.15 K, 4000 kPa
  mass density: 1270.93 ± 1.5 kg/m3
313.15 K, 5002 kPa
  mass density: 1271.59 ± 1.5 kg/m3
313.15 K, 6000 kPa
  mass density: 1272.21 ± 1.5 kg/m3
323.15 K, 101.33 kPa
  mass density: 1260.85 ± 1.4 kg/m3
333.15 K, 101.33 kPa
  mass density: 1253.45 ± 1.4 kg/m3
343.15 K, 101.33 kPa
  mass density: 1246.11 ± 1.4 kg/m3
353.15 K, 101.33 kPa
  mass density: 1238.83 ± 1.4 kg/m3
363.15 K, 101.33 kPa
  mass density: 1231.6 ± 1.3 kg/m3

## CCn1cc[n+](C)c1.O=S(=O)([N-]S(=O)(=O)C(F)(F)C(F)(F)F)C(F)(F)C(F)(F)F
273.15 K, 101.33 kPa
  mass density: 1621.64 ± 5.1 kg/m3
283.15 K, 101.33 kPa
  mass density: 1610.4 ± 5.1 kg/m3
293.15 K, 101.33 kPa
  mass density: 1599.21 ± 5 kg/m3
298.15 K, 101.33 kPa
  mass density: 1593.65 ± 5 kg/m3
303.15 K, 101.33 kPa
  mass density: 1588.12 ± 4.9 kg/m3
313.15 K, 101.33 kPa
  mass density: 1577.13 ± 4.9 kg/m3
313.15 K, 497 kPa
  mass density: 1577.9 ± 4.9 kg/m3
313.15 K, 1001 kPa
  mass density: 1578.46 ± 4.9 kg/m3
313.15 K, 1999 kPa
  mass density: 1579.57 ± 4.9 kg/m3
313.15 K, 3003 kPa
  mass density: 1580.67 ± 5 kg/m3
313.15 K, 4007 kPa
  mass density: 1581.77 ± 5 kg/m3
313.15 K, 5000 kPa
  mass density: 1582.86 ± 5 kg/m3
313.15 K, 6004 kPa
  mass density: 1583.94 ± 5 kg/m3
323.15 K, 101.33 kPa
  mass density: 1566.23 ± 4.8 kg/m3
333.15 K, 101.33 kPa
  mass density: 1555.4 ± 4.7 kg/m3
343.15 K, 101.33 kPa
  mass density: 1544.63 ± 4.7 kg/m3
353.15 K, 101.33 kPa
  mass density: 1533.92 ± 4.6 kg/m3
363.15 K, 101.33 kPa
  mass density: 1523.27 ± 4.5 kg/m3

## CCn1cc[n+](C)c1.O=S(=O)([N-]S(=O)(=O)C(F)(F)F)C(F)(F)F
273.15 K, 101.33 kPa
  mass density: 1544.43 ± 4.7 kg/m3
283.15 K, 101.33 kPa
  mass density: 1534.1 ± 4.6 kg/m3
293.15 K, 101.33 kPa
  mass density: 1523.89 ± 4.5 kg/m3
298.15 K, 101.33 kPa
  mass density: 1518.83 ± 4.5 kg/m3
303.15 K, 101.33 kPa
  mass density: 1513.78 ± 4.5 kg/m3
313.15 K, 101.33 kPa
  mass density: 1503.75 ± 4.4 kg/m3
313.15 K, 508 kPa
  mass density: 1504.27 ± 4.4 kg/m3
313.15 K, 1002 kPa
  mass density: 1504.75 ± 4.4 kg/m3
313.15 K, 1999 kPa
  mass density: 1505.7 ± 4.5 kg/m3
313.15 K, 3001 kPa
  mass density: 1506.65 ± 4.5 kg/m3
313.15 K, 3997 kPa
  mass density: 1507.6 ± 4.5 kg/m3
313.15 K, 5001 kPa
  mass density: 1508.55 ± 4.5 kg/m3
313.15 K, 6005 kPa
  mass density: 1509.49 ± 4.6 kg/m3
323.15 K, 101.33 kPa
  mass density: 1493.8 ± 4.4 kg/m3
333.15 K, 101.33 kPa
  mass density: 1483.92 ± 4.3 kg/m3
343.15 K, 101.33 kPa
  mass density: 1474.1 ± 4.2 kg/m3
353.15 K, 101.33 kPa
  mass density: 1464.36 ± 4.2 kg/m3
363.15 K, 101.33 kPa
  mass density: 1454.67 ± 4.1 kg/m3
